Where two headings read alike, the source gives them in different places. One block for each molecule: values may come before it. Starred links: 1 amine or outer side, 2 acyl side, 3 side chain; linkers in the order of their positions; H or OH if unused. Positions of bridges follow the written chain, without caps; N, C: chain ends. Non-standard residues stand in square brackets, D forms with d. Residues, ends and D or L forms follow the SMILES beside them. Triazole bridges read from a SMILES are 1,4-linked. Chains are numbered I, II in the order given. *: point of attachment. X1 = O=C(CCCC[C@@H]1SC[C@@H]2NC(=O)N[C@@H]21)NCCCOCCOCCOCCCN*; Lys(N3) = [N-]=[N+]=NCCCC[C@H](N)C(=O)O; Suc = O=C(CCC(=O)[*:2])[*:1]; dPra = C#CC[C@@H](N)C(=O)O
How the values were obtained:
[1] = mouse, in vivo, ip, 5 mg/kg
in vivo = details: male, CD-1, mouse
[2] = pH 7.4
[3] = In vivo pharmacokinetics in mice (IV or IP, parallel sampling); details: for AUC% Ext: male CD-1 mice
[4] = male, CD-1, mouse, plasma, ip, 5 mg/kg
[5] = male, CD-1, mouse, plasma, iv, 1 mg/kg

bioavailability [1]: 41%
AUC(0-inf) (in vivo; ip, 5 mg/kg): 2420 ng·h/mL
AUC(0-t) (in vivo; ip, 5 mg/kg): 2170 ng·h/mL
Cmax (in vivo; ip, 5 mg/kg): 3210 ng/mL
Tmax (in vivo; ip, 5 mg/kg): 10.2 min
half-life (in vivo; ip, 5 mg/kg): 154 min
AUC(0-inf) (in vivo; iv, 1 mg/kg): 1110 ng·h/mL
AUC(0-t) (in vivo; iv, 1 mg/kg): 1050 ng·h/mL
Vd (in vivo; iv, 1 mg/kg): 0.16 L/kg
clearance (in vivo; iv, 1 mg/kg): 15 mL/min/kg
half-life (in vivo; iv, 1 mg/kg): 7 min
resistance to metabolic degradation by mouse liver microsomes (in words) [2]: high resistance to metabolic degradation
SMILES: CC[C@H](C)[C@@H]1NC(=O)[C@H](CC(=O)O)NC(=O)[C@@H](NC(=O)[C@H](CC(N)=O)NC(=O)[C@@H]2CCCN2C(=O)[C@H](CCC(=O)O)NC(=O)[C@@H](NC(=O)CCC(=O)NCCCOCCOCCOCCCNC(=O)CCCC[C@@H]2SC[C@@H]3NC(=O)N[C@@H]32)C(C)C)CSSC[C@@H](C(=O)N[C@@H](Cc2ccccc2)C(=O)N[C@@H](CCC(=O)O)C(=O)N[C@@H](CCCNC(=N)N)C(=O)N[C@@H](CC(C)C)C(=O)N[C@@H](CCCCn2cc(C[C@@H](N)C(=O)N[C@H](CC(C)C)C(=O)N[C@H](Cc3ccccc3)C(=O)N[C@H](CCCNC(=N)N)C(=O)N[C@H](CCC(=O)O)C(=O)N[C@H](Cc3c[nH]c4ccccc34)C(N)=O)nn2)C(=O)O)NC(=O)[C@H](CCC(=O)O)NC(=O)[C@H](Cc2c[nH]c3ccccc23)NC(=O)[C@H](CCC(=O)O)NC(=O)[C@H](Cc2c[nH]c3ccccc23)NC(=O)[C@H](CCSC)NC(=O)[C@H](C(C)C)NC(=O)[C@H](Cc2c[nH]cn2)NC1=O [Bi‐LV] (I: {X1-Suc}-VEPNCDIHVMWEWECFERL[Lys(N3)]-OH / II: H-[dPra][dL][dF][dR][dE][dW]-NH2; disulfide I:5-I:15; triazole I:20-II:1)

SMILES: CC[C@@H](C)[C@@H](NC(=O)[C@@H](CCC(=O)O)NC(=O)[C@@H](CCC(=O)O)NC(=O)[C@H](N)Cc1cn(CCCC[C@H](NC(=O)[C@@H](Cc2c[nH]c3ccccc23)NC(=O)[C@@H](CCC(=O)O)NC(=O)[C@@H](CCCNC(=N)N)NC(=O)[C@@H](Cc2ccccc2)NC(=O)[C@@H](CC(C)C)NC(=O)[C@H](N)Cc2cn(CCCC[C@H](NC(=O)[C@H](CC(C)C)NC(=O)[C@H](CCCNC(=N)N)NC(=O)[C@H](CCC(=O)O)NC(=O)[C@H](Cc3ccccc3)NC(=O)[C@@H]3CSSC[C@H](NC(=O)[C@H](CC(N)=O)NC(=O)[C@@H]4CCCN4C(=O)[C@H](CCC(=O)O)NC(=O)[C@@H](NC(=O)CCC(=O)NCCCOCCOCCOCCCNC(=O)CCCC[C@@H]4SC[C@@H]5NC(=O)N[C@@H]54)C(C)C)C(=O)N[C@@H](CC(=O)O)C(=O)N[C@@H]([C@@H](C)CC)C(=O)N[C@@H](Cc4c[nH]cn4)C(=O)N[C@@H](C(C)C)C(=O)N[C@@H](CCSC)C(=O)N[C@@H](Cc4c[nH]c5ccccc45)C(=O)N[C@@H](CCC(=O)O)C(=O)N[C@@H](Cc4c[nH]c5ccccc45)C(=O)N[C@@H](CCC(=O)O)C(=O)N3)C(=O)O)nn2)C(=O)O)nn1)C(=O)N[C@H](CCCNC(=N)N)C(=O)N[C@H](CC(=O)O)C(N)=O [Tri‐LV] (I: {X1-Suc}-VEPNCDIHVMWEWECFERL[Lys(N3)]-OH / II: H-[dPra][dL][dF][dR][dE][dW][Lys(N3)]-OH / III: H-[dPra][dE][dE][dI][dR][dD]-NH2; disulfide I:5-I:15; triazole I:20-II:1, II:7-III:1)
AUC% Ext ([3]; IP, 5 mg/kg single dose, plasma): 2.04%
AUC% Ext ([3]; IV, 1 mg/kg single dose, plasma): 6.49%
AUC(0-inf) [3, 4]: 32200 ng·h/mL
AUC(0-t) [3, 4]: 31500 ng·h/mL
Cmax [3, 4]: 19800 ng/mL
Tmax [3, 4]: 30 min
AUC(0-inf) [3, 5]: 6490 ng·h/mL
AUC(0-t) [3, 5]: 6070 ng·h/mL
Vd [3, 5]: 0.0967 L/kg
clearance [3, 5]: 2.57 mL/min/kg
bioavailability ([3]; mouse, in vivo, ip, 5 mg/kg): 99%

Reference: paper PMC6585716, “Protein catalyzed capture agents with tailored performance for in vitro and in vivo applications” (Biopolymers, 2017)
